In patent US20230116707A1, “DETECTION OF NOVEL DEGRADATION-RELATED INTERACTIONS” (Orionis Biosciences, Inc., priority 2019, published 2023):

Legend:
Type in all cases: cell-based
[1] = molecular target: T1, CRBN with proteins of a human ORF(eome) cDNA library (Homo sapiens, UniProt Q96SW2); assay: MAPPIT-derivative cell microarray screen of a human ORF(eome) cDNA library with CRBN bait (pSEL-CRBN); details: CC-220 10 μM; four ORF cDNAs confirmed in dose-response
T1 construct: expressed in transfected cells; host or cells: HEK293T
T1 sequence (Q96SW2 whole entry): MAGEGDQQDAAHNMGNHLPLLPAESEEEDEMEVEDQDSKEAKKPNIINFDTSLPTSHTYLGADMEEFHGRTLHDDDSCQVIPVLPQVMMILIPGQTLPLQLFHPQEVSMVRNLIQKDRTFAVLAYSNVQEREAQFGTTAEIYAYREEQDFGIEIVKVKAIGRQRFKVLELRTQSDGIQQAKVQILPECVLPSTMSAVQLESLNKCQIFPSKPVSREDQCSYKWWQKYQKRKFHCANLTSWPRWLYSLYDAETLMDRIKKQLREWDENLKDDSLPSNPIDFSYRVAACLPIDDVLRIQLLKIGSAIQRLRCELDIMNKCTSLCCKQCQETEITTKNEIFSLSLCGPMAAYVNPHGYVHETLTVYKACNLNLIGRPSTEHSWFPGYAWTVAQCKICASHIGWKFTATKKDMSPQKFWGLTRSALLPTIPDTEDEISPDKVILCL
T1 sequence (Q16531 whole entry partner): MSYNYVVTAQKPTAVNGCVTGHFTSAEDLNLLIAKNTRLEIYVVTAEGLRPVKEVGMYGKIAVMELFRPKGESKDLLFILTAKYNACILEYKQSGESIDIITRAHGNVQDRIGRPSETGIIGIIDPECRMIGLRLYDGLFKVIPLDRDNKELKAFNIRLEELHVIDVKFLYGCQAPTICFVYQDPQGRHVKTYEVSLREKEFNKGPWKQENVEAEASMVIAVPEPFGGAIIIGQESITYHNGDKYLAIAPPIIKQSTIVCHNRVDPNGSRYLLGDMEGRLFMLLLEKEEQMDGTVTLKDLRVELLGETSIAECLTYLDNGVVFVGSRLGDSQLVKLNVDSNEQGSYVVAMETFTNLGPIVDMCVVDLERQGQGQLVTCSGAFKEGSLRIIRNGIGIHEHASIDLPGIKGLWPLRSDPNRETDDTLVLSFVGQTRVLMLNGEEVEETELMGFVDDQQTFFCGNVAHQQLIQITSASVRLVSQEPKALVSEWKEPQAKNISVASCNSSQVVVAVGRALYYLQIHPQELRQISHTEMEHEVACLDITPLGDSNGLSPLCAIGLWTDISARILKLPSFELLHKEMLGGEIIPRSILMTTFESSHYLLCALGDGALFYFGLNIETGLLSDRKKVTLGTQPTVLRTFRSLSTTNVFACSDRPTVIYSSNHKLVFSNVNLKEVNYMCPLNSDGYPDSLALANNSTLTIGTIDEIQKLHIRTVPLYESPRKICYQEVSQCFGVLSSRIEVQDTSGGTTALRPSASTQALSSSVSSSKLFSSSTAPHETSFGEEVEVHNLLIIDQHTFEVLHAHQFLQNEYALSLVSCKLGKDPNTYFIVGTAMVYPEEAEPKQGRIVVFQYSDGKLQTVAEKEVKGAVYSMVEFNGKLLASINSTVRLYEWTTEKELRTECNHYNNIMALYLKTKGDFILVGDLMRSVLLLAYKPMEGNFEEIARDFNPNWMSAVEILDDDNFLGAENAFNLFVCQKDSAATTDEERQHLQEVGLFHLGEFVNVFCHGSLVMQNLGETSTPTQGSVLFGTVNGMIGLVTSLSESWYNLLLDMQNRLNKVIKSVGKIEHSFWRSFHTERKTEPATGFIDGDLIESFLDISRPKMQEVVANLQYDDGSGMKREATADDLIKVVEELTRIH
Protocol: In order to identify ligand-induced CRBN substrates, or neosubstrates, a MAPPIT cell microarray screen was performed using the procedure described in Lievens, et al. “Proteome-scale binary interactomics in human cells.” Molecular & Cellular Proteomics 15.12 (2016): 3624-3639. […] These transfected cells were then added to microarray screening plates containing a prey gp130 fusion expression plasmid collection covering over 15,000 ORFs. Each spot in the microarray contained a different gp130-ORF fusion expression plasmid, as well as a STAT3-responsive fluorescence protein-encoding reporter plasmid. CRBN bait transfected cells landing and attaching on these spots therefore become transfected as well with the gp130-ORF prey plasmid and the reporter plasmid, resulting in a different CRBN-ORF combination being tested in the cells on every different microarray spot. Twenty-four hours after transfection cells were differentially stimulated with erythropoietin with and without the CRBN ligand CC-220 (10 μM), and reporter signal (GFP-like fluorescence reporter) was read out 48 hours later.

CRBN-GSPT1 interaction = molecular target: T2, CRBN-GSPT1 interaction (Homo sapiens, UniProt Q96SW2); assay: MAPPIT-derivative assay, CRBN bait receptor fusion (pSEL-CRBN) with gp130-GSPT1 (domain 2+3), luciferase reporter in HEK293T cells; details: dose-response, EPO-stimulated, 24 hours compound treatment
T2 construct: expressed in transfected cells; host or cells: HEK293T
T2 sequence (Q96SW2 whole entry, the tested form may be a part): as the sequence (Q96SW2 whole entry) above
T2 sequence (P15170 299-495 partner limits assumed): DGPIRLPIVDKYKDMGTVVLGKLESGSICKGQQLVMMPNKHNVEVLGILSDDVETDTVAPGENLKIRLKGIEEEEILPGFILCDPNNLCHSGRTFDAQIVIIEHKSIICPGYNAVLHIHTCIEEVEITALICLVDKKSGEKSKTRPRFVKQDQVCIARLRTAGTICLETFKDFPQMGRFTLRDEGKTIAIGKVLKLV
T2 sequence (Q16531 whole entry partner, the tested form may be a part): as the sequence (Q16531 whole entry partner) above
Description: (§1) In order to identify ligand-induced CRBN substrates, or neosubstrates, here we use a derivative of the MAPPIT assay, applying the procedure described in Lemmens, et al. “MAPPIT, a mammalian two-hybrid method for in-cell detection of protein-protein interactions,” Methods Mol Biol. 2015; 1278:447-55. The traditional MAPPIT assay has been used to monitor protein-protein interactions. A bait protein (protein A) is expressed as a fusion protein in which it is genetically fused to an engineered intracellular receptor domain of the leptin receptor, which is itself fused to the extracellular domain of the erythropoietin (Epo) receptor. […] Activation of STAT3 can be monitored by introduction of a STAT3-responsive reporter gene, including a luciferase-encoding gene or a gene encoding a fluorescent marker such as GFP or some other type of Fluorescent Protein (EGFP, etc.). […]
(§2) In this Example 1, we used a derivative of the MAPPIT assay that we developed specifically for use in determining CRBN-ligand induced protein interactions, i.e. using a specific CRBN bait protein and assaying for ligand-dependent induction of protein complex formation. The CRBN bait protein is expressed as a fusion with the MAPPIT chimeric membrane receptor and the interacting target protein is fused with the cytoplasmic gp130 receptor fragment (gp130-IKZF1(isoform 7), gp130-target X, gp130-GSPT1(domain 2+3) or gp130-GSPT2). […]

CRBN-GSPT2 interaction = molecular target: T3, CRBN-GSPT2 interaction (Homo sapiens, UniProt Q96SW2); assay: MAPPIT-derivative assay, CRBN bait receptor fusion (pSEL-CRBN) with gp130-GSPT2, luciferase reporter in HEK293T cells; details: dose-response, EPO-stimulated, 24 hours compound treatment
T3 construct: expressed in transfected cells; host or cells: HEK293T
T3 sequence (Q96SW2 whole entry, the tested form may be a part): as the sequence (Q96SW2 whole entry) above
T3 sequence (Q8IYD1 whole entry partner, the tested form may be a part): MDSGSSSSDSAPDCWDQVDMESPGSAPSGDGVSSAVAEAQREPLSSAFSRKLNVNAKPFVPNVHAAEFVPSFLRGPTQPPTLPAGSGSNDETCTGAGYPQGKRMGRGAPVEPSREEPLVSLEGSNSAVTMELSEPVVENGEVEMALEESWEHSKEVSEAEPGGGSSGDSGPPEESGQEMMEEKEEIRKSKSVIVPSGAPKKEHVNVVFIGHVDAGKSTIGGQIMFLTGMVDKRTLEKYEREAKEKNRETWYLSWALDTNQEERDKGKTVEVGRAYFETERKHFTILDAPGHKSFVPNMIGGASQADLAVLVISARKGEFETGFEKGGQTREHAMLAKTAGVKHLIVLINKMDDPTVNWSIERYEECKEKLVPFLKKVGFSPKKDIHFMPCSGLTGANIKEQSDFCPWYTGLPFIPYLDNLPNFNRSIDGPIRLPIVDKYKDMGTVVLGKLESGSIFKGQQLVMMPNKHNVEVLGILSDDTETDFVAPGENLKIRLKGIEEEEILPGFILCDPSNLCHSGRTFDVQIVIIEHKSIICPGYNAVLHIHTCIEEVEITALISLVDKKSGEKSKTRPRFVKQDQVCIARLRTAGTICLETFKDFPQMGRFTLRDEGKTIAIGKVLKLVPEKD
T3 sequence (Q16531 whole entry partner, the tested form may be a part): as the sequence (Q16531 whole entry partner) above
Description: as §1, §2

[2] = molecular target: T4, FKBP1A (FKBP12)-calcineurin PPP3CA interaction (Homo sapiens, UniProt P62942); assay: MAPPIT-derivative assay, FKBP1A bait receptor fusion (pSEL-FKBP1A) with gp130 fusion of calcineurin PPP3CA catalytic subunit; details: dose-response; without or with co-expression of PPP3R2 regulatory subunit
T4 construct: expressed in transfected cells; host or cells: HEK293T
T4 sequence (P62942 whole entry, other chains not shown, the tested form may be a part): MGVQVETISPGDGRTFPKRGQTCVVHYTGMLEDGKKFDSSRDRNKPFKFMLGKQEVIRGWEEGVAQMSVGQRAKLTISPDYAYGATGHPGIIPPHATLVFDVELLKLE
T4 sequence (Q96LZ3 whole entry partner, other chains not shown, the tested form may be a part): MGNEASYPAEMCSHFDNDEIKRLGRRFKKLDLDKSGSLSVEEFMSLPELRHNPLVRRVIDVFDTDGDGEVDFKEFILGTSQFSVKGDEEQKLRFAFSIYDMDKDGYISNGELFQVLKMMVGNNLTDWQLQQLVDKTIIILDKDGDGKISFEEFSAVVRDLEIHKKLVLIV
Protocol: (§3) Luciferase activity was measured 24 hours after test compound treatment using the Luciferase Assay System kit (PROMEGA, Madison, Wis.) with an Ensight plate reader (PERKIN ELMER LIFE SCIENCES, Waltham, Mass.). […] Error bars represent standard deviations. Curves were fit using 4-parameter nonlinear regression in […] PRISM software.

[3] = molecular target: T5, FKBP1A (FKBP12)-MTOR (FRB domain) interaction (Homo sapiens, UniProt P62942); assay: MAPPIT-derivative assay, FKBP1A bait receptor fusion (pSEL-FKBP1A) with gp130-MTOR (FRB domain); details: dose-response, HEK293T, EPO-stimulated
T5 construct: expressed in transfected cells; host or cells: HEK293T
T5 sequence (P62942 whole entry, the tested form may be a part): as the sequence (P62942 whole entry, other chains not shown, the tested form may be a part) above
T5 sequence (P42345 2012-2144 partner limits assumed): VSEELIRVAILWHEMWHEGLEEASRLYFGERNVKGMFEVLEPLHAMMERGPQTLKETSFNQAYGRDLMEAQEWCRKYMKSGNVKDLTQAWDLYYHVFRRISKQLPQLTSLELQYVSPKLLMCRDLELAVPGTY
Protocol: as §3
Luciferase activity was measured 24 hours after test compound treatment using the Luciferase Assay System kit (PROMEGA, Madison, Wis.) with an Ensight plate reader (PERKIN ELMER LIFE SCIENCES, Waltham, Mass.). […] Error bars represent standard deviations.

Structure (SMILES): O=C1CC[C@H](N2Cc3c(OCc4ccc(CN5CCOCC5)cc4)cccc3C2=O)C(=O)N1 [CC-220]
- fluorescence reporter signal, ORF proteins recruited to CRBN [1]: significant induction of signal is observed for a number of ORF cDNAs

Structure (SMILES): Cc1ccc(NC(=O)NCc2ccc3c(c2)CN(C2CCC(=O)NC2=O)C3=O)cc1Cl (stereo not drawn) [CC-885]
- compound-induced recruitment of GSPT1 to CRBN (reporter signal) (CRBN-GSPT1 interaction): only recruited through CC-885
- compound-induced recruitment of GSPT2 to CRBN (reporter signal) (CRBN-GSPT2 interaction): only recruited through CC-885

Structure (SMILES): C=CC[C@@H]1/C=C(\C)C[C@H](C)C[C@H](OC)[C@H]2O[C@@](O)(C(=O)C(=O)N3CCCC[C@H]3C(=O)O[C@H](/C(C)=C/[C@@H]3CC[C@@H](O)[C@H](OC)C3)[C@H](C)[C@@H](O)CC1=O)[C@H](C)C[C@@H]2OC [FK506, tacrolimus]
- compound-dependent binding of PPP3CA to FKBP1A (reporter signal) [2]: binding of PPP3CA can be monitored

Structure (SMILES): CO[C@H]1C[C@@H]2CC[C@@H](C)[C@@](O)(O2)C(=O)C(=O)N2CCCC[C@H]2C(=O)O[C@H]([C@H](C)C[C@@H]2CC[C@@H](OCCO)[C@H](OC)C2)CC(=O)[C@H](C)/C=C(\C)[C@@H](O)[C@@H](OC)C(=O)[C@H](C)C[C@H](C)/C=C/C=C/C=C/1C [everolimus]
- compound-induced recruitment of MTOR to FKBP1A (reporter signal) [3]: compound-induced recruitment of MTOR is detected

Structure (SMILES): CC[C@@H]1/C=C(\C)C[C@H](C)C[C@H](OC)[C@H]2O[C@@](O)(C(=O)C(=O)N3CCCC[C@H]3C(=O)O[C@H](/C(C)=C/[C@@H]3CC[C@H](Cl)[C@H](OC)C3)[C@H](C)[C@@H](O)CC1=O)[C@H](C)C[C@@H]2OC [pimecrolimus]
- compound-dependent binding of PPP3CA to FKBP1A (reporter signal) [2]: binding of PPP3CA can be monitored
